According to PubChem BioAssay (NCI):
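A five-concentration, 48-hour dose response in 96-well plates underlies each endpoint, interpolated linearly between surrounding concentrations. GI50 marks 50% less growth. TGI: concentration producing complete growth inhibition.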

How the values were obtained:
Assay in all cases: NCI anticancer screen, dose series, 48 h
[1] = test system: A498 renal
[2] = test system: MDA-MB-435
[3] = test system: SR leukemia
[4] = test system: UO-31 renal
[5] = test system: MCF7 breast
[6] = test system: MDA-MB-231 breast
[7] = test system: OVCAR-3 ovarian
[8] = test system: SF-295 CNS
[9] = test system: NCI/ADR-RES ovarian
[10] = test system: SK-MEL-5 melanoma
[11] = test system: UACC-257 melanoma
[12] = test system: CCRF-CEM leukemia
[13] = test system: SNB-19 CNS
[14] = test system: CAKI-1 renal
[15] = test system: SF-539 CNS
[16] = test system: DU-145 prostate
[17] = test system: IGROV1 ovarian
[18] = test system: MOLT-4 leukemia
[19] = test system: HS 578T breast
[20] = test system: T-47D breast
[21] = test system: SF-268 CNS
[22] = test system: PC-3 prostate
[23] = test system: UACC-62 melanoma
[24] = test system: 786-0 renal
[25] = test system: BT-549 breast
[26] = test system: NCI-H226 lung
[27] = test system: OVCAR-4 ovarian
[28] = test system: U251 CNS
[29] = test system: K-562 leukemia
[30] = test system: ACHN renal
[31] = test system: HOP-92 NSCLC
[32] = test system: NCI-H23 lung
[33] = test system: SK-OV-3 ovarian
[34] = test system: HCT-15 colon
[35] = test system: SW-620 colon
[36] = test system: COLO 205 colon
[37] = test system: OVCAR-8 ovarian
[38] = test system: MALME-3M melanoma
[39] = test system: KM12 colon
[40] = test system: EKVX NSCLC
[41] = test system: NCI-H460 lung
[42] = test system: OVCAR-5 ovarian
[43] = test system: HT29 colon
[44] = test system: LOX IMVI melanoma
[45] = test system: M14 melanoma
[46] = test system: NCI-H522 lung
[47] = test system: A549 NSCLC
[48] = test system: HOP-62 NSCLC
[49] = test system: TK-10 renal
[50] = test system: HCC-2998 colon
[51] = test system: HCT-116 colon
[52] = test system: RXF 393 renal
[53] = test system: RPMI-8226 leukemia
[54] = test system: SK-MEL-2 melanoma
[55] = test system: HL-60(TB) leukemia
[56] = test system: SN12C renal
[57] = test system: SK-MEL-28 melanoma
[58] = test system: SNB-75 CNS

## Cc1c(C(=O)c2ccccc2)[n+](=O)c2cc(F)c(F)cc2n1[O-]
[1]
  GI50: 12.1 µM
  TGI: 24.9 µM
[2]
  GI50: 2.2 µM
  TGI: 5.43 µM
[3]
  GI50: 0.316 µM
  TGI: 5.24 µM
[4]
  GI50: 2.04 µM
  TGI: 4.13 µM
[5]
  GI50: 4.35 µM
  TGI: 21 µM
[6]
  GI50: 1.46 µM
  TGI: 2.83 µM
[7]
  GI50: 1.53 µM
  TGI: 3.04 µM
[8]
  GI50: 1.95 µM
  TGI: 3.46 µM
[9]
  GI50: 1.76 µM
  TGI: 3.23 µM
[10]
  GI50: 2.03 µM
  TGI: 4.24 µM
[11]
  GI50: 2.49 µM
  TGI: 6.1 µM
[12]
  GI50: 1.18 µM
  TGI: 2.89 µM
[13]
  GI50: 2.3 µM
  TGI: 5.3 µM
[14]
  GI50: 1.88 µM
  TGI: 3.45 µM
[15]
  GI50: 3.94 µM
  TGI: 12.9 µM
[16]
  GI50: 10.8 µM
  TGI: 24.5 µM
[17]
  GI50: 1.32 µM
  TGI: 5.33 µM
[18]
  GI50: 1.04 µM
  TGI: 80.4 µM
[19]
  GI50: 2.08 µM
  TGI: 4.68 µM
[20]
  GI50: 3.7 µM
  TGI: 20.1 µM
[21]
  GI50: 1.93 µM
  TGI: 4.12 µM
[22]
  GI50: 3.37 µM
  TGI: 14.1 µM
[23]
  GI50: 1.51 µM
  TGI: 2.83 µM
[24]
  GI50: 16.6 µM
  TGI: 31.2 µM
[25]
  GI50: 2.04 µM
  TGI: 4.39 µM
[26]
  GI50: 2.67 µM
  TGI: 4.34 µM
[27]
  GI50: 3.11 µM
  TGI: > 100 µM
[28]
  GI50: 1.71 µM
  TGI: 3.08 µM
[29]
  GI50: 1.97 µM
  TGI: > 100 µM
[30]
  GI50: 1.66 µM
  TGI: 3.02 µM
[31]
  GI50: 3.72 µM
  TGI: 14.7 µM
[32]
  GI50: 1.72 µM
  TGI: 3.16 µM
[33]
  GI50: 3.7 µM
  TGI: 12.9 µM
[34]
  GI50: 0.511 µM
  TGI: 1.64 µM
[35]
  GI50: 1.43 µM
  TGI: 3.14 µM
[36]
  GI50: 3.31 µM
  TGI: 11.5 µM
[37]
  GI50: 2.02 µM
  TGI: 4.32 µM
[38]
  GI50: 2.7 µM
  TGI: 7.76 µM
[39]
  GI50: 11.4 µM
  TGI: 25 µM
[40]
  GI50: 10.4 µM
  TGI: 33 µM
[41]
  GI50: 2.27 µM
  TGI: 5.17 µM
[42]
  GI50: 18.7 µM
  TGI: 33.8 µM
[43]
  GI50: 2.52 µM
  TGI: > 100 µM
[44]
  GI50: 1.61 µM
  TGI: 3.01 µM
[45]
  GI50: 1.81 µM
  TGI: 3.36 µM
[46]
  GI50: 1.93 µM
  TGI: 3.88 µM
[47]
  GI50: 7.26 µM
  TGI: 30.9 µM
[48]
  GI50: 1.84 µM
  TGI: 3.4 µM
[49]
  GI50: 1.36 µM
  TGI: 17.5 µM

## CC/C(=C(/c1ccc(OCCN(C)C)cc1)c1ccc(OC(=O)CCCCCCCCC(=O)c2c(C)[nH]c(/C=C3\N=C(c4ccc[nH]4)C=C3OC)c2C)cc1)c1ccccc1
[50]
  GI50: > 100 µM
  TGI: > 100 µM
[1]
  GI50: 15 µM
  TGI: 72 µM
[2]
  GI50: 4.63 µM
  TGI: > 100 µM
[3]
  GI50: 4.1 µM
  TGI: > 100 µM
[4]
  GI50: 4.45 µM
  TGI: > 100 µM
[5]
  GI50: 0.161 µM
  TGI: 10.9 µM
[6]
  GI50: 3.4 µM
  TGI: 18.1 µM
[51]
  GI50: 3.36 µM
  TGI: 21.8 µM
[7]
  GI50: 10.9 µM
  TGI: > 100 µM
[9]
  GI50: 31.7 µM
  TGI: > 100 µM
[10]
  GI50: 1.61 µM
  TGI: 3.2 µM
[11]
  GI50: 62.5 µM
  TGI: > 100 µM
[12]
  GI50: 0.768 µM
  TGI: > 100 µM
[13]
  GI50: 12.1 µM
  TGI: 50.7 µM
[52]
  GI50: 13.9 µM
  TGI: > 100 µM
[14]
  GI50: 7 µM
  TGI: > 100 µM
[15]
  GI50: 10.7 µM
  TGI: 61.6 µM
[16]
  GI50: 8.06 µM
  TGI: > 100 µM
[17]
  GI50: 23.1 µM
  TGI: > 100 µM
[18]
  GI50: 5.13 µM
  TGI: > 100 µM
[19]
  GI50: 4.74 µM
  TGI: 85 µM
[20]
  GI50: 3.56 µM
  TGI: > 100 µM
[21]
  GI50: 6.63 µM
  TGI: > 100 µM
[22]
  GI50: 5.86 µM
  TGI: > 100 µM
[23]
  GI50: 3.37 µM
  TGI: 18.1 µM
[24]
  GI50: 5.19 µM
  TGI: > 100 µM
[25]
  GI50: 5.21 µM
  TGI: > 100 µM
[26]
  GI50: > 100 µM
  TGI: > 100 µM
[53]
  GI50: 3.75 µM
  TGI: > 100 µM
[28]
  GI50: 4.2 µM
  TGI: > 100 µM
[29]
  GI50: 4.54 µM
  TGI: > 100 µM
[30]
  GI50: 7.82 µM
  TGI: > 100 µM
[32]
  GI50: 48.4 µM
  TGI: > 100 µM
[33]
  GI50: > 100 µM
  TGI: > 100 µM
[34]
  GI50: 5.12 µM
  TGI: 97.8 µM
[35]
  GI50: 3.72 µM
  TGI: 14 µM
[54]
  GI50: 30.7 µM
  TGI: > 100 µM
[36]
  GI50: 8.2 µM
  TGI: 78 µM
[37]
  GI50: 9.06 µM
  TGI: > 100 µM
[38]
  GI50: 40.7 µM
  TGI: > 100 µM
[39]
  GI50: 5.25 µM
  TGI: > 100 µM
[41]
  GI50: 4.26 µM
  TGI: > 100 µM
[42]
  GI50: > 100 µM
  TGI: > 100 µM
[55]
  GI50: 12.3 µM
  TGI: > 100 µM
[43]
  GI50: 5.18 µM
  TGI: > 100 µM
[44]
  GI50: 2.36 µM
  TGI: 5.93 µM
[56]
  GI50: 7.55 µM
  TGI: > 100 µM
[57]
  GI50: 43.9 µM
  TGI: > 100 µM
[45]
  GI50: 2.15 µM
  TGI: 4.48 µM
[46]
  GI50: 21.2 µM
  TGI: > 100 µM
[58]
  GI50: 6.25 µM
  TGI: > 100 µM
[47]
  GI50: 4.13 µM
  TGI: > 100 µM
[48]
  GI50: 17 µM
  TGI: > 100 µM
[49]
  GI50: 21 µM
  TGI: > 100 µM
